Results from paper PMC9661696, “Inhibition of β-Amyloid Aggregation in Alzheimer’s Disease: The Key Role of (Pro)electrophilic Warheads” (ACS Medicinal Chemistry Letters, 2022).

What was measured:
[1] = target: T1, Aβ42 (β-amyloid peptide) (Homo sapiens, UniProt P05067); test: inhibition of Aβ[…] self-aggregation, MS monomer quantification at […] (also ThT assay); assay type: biochemical; conditions: read-out: inhibition of Aβ42 self-aggregation / % inhibition by MS ± SD [I] = 50 μM ^b
T1 construct: gene APP; Aβ42
T1 sequence (P05067 672-713): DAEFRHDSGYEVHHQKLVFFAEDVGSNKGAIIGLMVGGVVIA

[2] = target: T1, Aβ42 (β-amyloid peptide); test: MS and LC-MS/MS detection of covalent adduct with Aβ[…]; ThT aggregation assay (IC50); assay type: biochemical

inhibition at 50 µM [1] [%]	IC50 [2] [µM]	SMILES
56.9	–	CCCSC(=O)/C=C/c1ccc(O)c(O)c1 [compound 1]
–	10.2	CCCSC(=O)/C=C/c1cc(O)ccc1O [compound 3, para-hydroquinone 3]
